Consider two compounds from patent publication US10759779B2, “Crystalline form of orexin receptor antagonist, processes for preparation thereof and use thereof” (priority 2017, dated 2020).

Type in all cases: physicochemical
A short description of data set [1]: Flowability (bulk/tapped density, compressibility index). The settings on record: for Compressibility index: c=(ρf−ρ0)/ρf*100%; for Flowability: class by compressibility index. On the procedure:
Compressibility, also known as compressibility index is usually used to evaluate the flowability of powder and granular intermediates during the formulation process. A certain amount of powder was added into a measuring cylinder and bulk volume was recorded. Then the measuring cylinder was tapped to make the powder in the tightest state and the tapped volume was recorded. The bulk density (ρ0), tapped density (ρf) were calculated, and compressibility index was calculated according to c=(ρf−ρ0)/ρf. Compressibility index or Carr Index is an important indicator for evaluating the flowability of powder.
Compressibility index test method is as follows: Compressibility index was calculated according to bulk density ρ0 and tapped density ρf of Form CS2 and the amorphous solid of the prior art with c=(ρf−ρ0)/ρf*100%.

A short description of data set [2]: Grinding stability of Form CS2. The settings on record: ground manually for 5 minutes in a mortar, XRPD. As to the method: Form CS2 was ground manually for 5 minutes in a mortar. The XRPD pattern of the solids before and after grinding are presented in FIG. 12 (top: XRPD pattern before grinding; bottom: XRPD pattern after grinding). […] Form CS2 has good grinding stability.

Data set [3] is described as follows: Compressibility (tablet hardness, tensile strength). On the procedure:
80 mg of Form CS2 was weighted and added into the dies of φ6 mm round tooling, compressed at 10 KN. The round tablet was stored in a desiccator for 24 hours until complete elastic recovery. Hardness (H) was tested with a tablet hardness tester. Diameter (D) and thickness (L) were tested with caliper. Tensile strength of the powder was calculated with the following formula: T=2H/πDL. Under a certain force, the greater the tensile strength, the better the compressibility.

Data set [4] in a line: Hygroscopicity by dynamic vapor sorption (DVS). On the procedure: Thermo gravimetric analysis (TGA) data in the present disclosure were acquired by a TA Q500. The parameters of the TGA method of the present disclosure were as follows: • Heating rate: 10° C./min • Purge gas: nitrogen • Dynamic Vapor Sorption (DVS) is measured via a SMS (Surface Measurement Systems Ltd.) intrinsic DVS instrument. Typical Parameters for DVS test are as follows: • Temperature: 25° C. • Gas and flow rate: N2, 200 mL/min • dm/dt: 0.002%/min • RH range: 0% RH to 95% RH
Dynamic vapor sorption (DVS) was applied to measure hygroscopicity of Form CS2 with about 10 mg of samples. The weight gains at each relative humidity were recorded in a cycle of 0-95%-0 RH. The XRPD pattern overlay of Form CS2 before and after DVS test is presented in FIG. 14 (top: XRPD pattern before DVS; bottom: XRPD pattern after DVS). […] The weight gain under 80% RH is 0.21%.

Data set [5] can be described thus: Adhesiveness (material sticking to the punch). The settings on record: 30 mg, φ8 mm round tooling, 10 KN, 30s. On the procedure:
30 mg of Form CS2 was weighed and added into the dies of φ8 mm round tooling, tableted at 10 KN and held for 30s. The amount of material sticking to the punch was weighed. The compression was repeated twice and the cumulative amount, maximum amount and average amount of material sticking to the punch during the compression process were recorded.

Setting [6] is: 80 mg tablet, φ6 mm, 10 KN, after 24 hours.

On to `Cc1ncc(OC[C@@]2(c3cccc(F)c3)C[C@H]2C(=O)Nc2ccc(F)cn2)c(C)n1` [Amorphous solid, (1R,2S)-2-{[(2,4-dimethylpyrimidin-5-yl)oxy]methyl}-2-(3-fluorophenyl)-N-(5-fluoropyridin-2-yl)cyclopropanecarboxamide, reference compound], for which, in data set [1], the “Bulk density (ρ0)” value is 0.196 g/mL, the “Tapped density (ρf)” value is 0.274 g/mL, the Compressibility index was determined as 28% and the Flowability entry was “Poor”.
With `Cc1ncc(OC[C@@]2(c3cccc(F)c3)C[C@H]2C(=O)Nc2ccc(F)cn2)c(C)n1` [Form CS2, (1R,2S)-2-{[(2,4-dimethylpyrimidin-5-yl)oxy]methyl}-2-(3-fluorophenyl)-N-(5-fluoropyridin-2-yl)cyclopropanecarboxamide], the “Crystalline form after grinding” value in data set [2] is “does not change after grinding”. In data set [3] (setting [6]), this compound displayed a Diameter of 6.06 mm, a Hardness of 8.4 N and a Thickness of 2.40 mm. In data set [3] (T=2H/πDL), this compound had a Tensile strength of 0.37 MPa. Further, the “Weight gain under 80% Relative Humidity” value in data set [4] (DVS, 25° C.) worked out at 0.21%. The “Crystalline form after DVS” value in data set [4] (cycle of 0-95%-0 RH, XRPD) is on record as “does not change after DVS”. In addition, in data set [5], the “Average amount of material sticking to the punch” value was 0.22 mg, the “Cumulative amount of material sticking to the punch” value is on record as 0.44 mg and the “Maximum amount of material sticking to the punch” value turned out to be 0.74 mg. Further, in data set [1], the “Bulk density (ρ0)” value stood at 0.263 g/mL, the “Tapped density (ρf)” value is on record as 0.351 g/mL, the Compressibility index stood at 25% and the Flowability entry was “Passable (21-25)”.
